Test results reported in patent US20230111310A1, “CARBOXYLIC ACID DERIVATIVE-SUBSTITUTED IMINO ARYL COMPOUND, PREPARATION METHOD THEREFOR, HERBICIDAL COMPOSITION AND USE THEREOF” (Qingdao Kingagroot Chemical Compound Co., Ltd., priority 2020, published 2023).

Assays:
Type in all cases: in vivo
[1] = system: Echinochloa caudata Roshev.; assay: Composition activity test, post-emergence foliage spray; settings: B 15 g a.i./ha
Description: (§1) are as follows, and the others were purchased from reagent companies. The technical materials were all dissolved in acetone and diluted with an aqueous solution containing 0.1% emulsifier Tween-80. The dilution is performed as required.
(§2) Weeds were cultivated by a pot culture method. […] Full and uniform weed seeds were selected, soaked in warm water at 25° C. for 6 hours, and germinated in a 28° C. biochemical incubator (darkness). The weed seeds that had just germinated were evenly placed on the surface of the soil and then covered with 0.5-1 cm soil according to the sizes of seeds.
(§3) The culture was carried out in a controllable sunlight greenhouse at 20 to 30° C., in natural light, and relative humidity of 57% to 72%.
(§4) 3 pots with 20 weed seeds per pot were treated in one treatment with 4 replications per treatment.
(§5) The agents were used for only once in the experiment. In the stage of weeds with 1.5-2 leaves, the weeds were thinned out to maintain 10 weeds per pot and 30 weeds for each treatment, then continued to be cultured to Conyza Canadensis 10 cm in height, other weeds 3-4 leaves stage and treated.
(§6) The well-cultured weeds were evenly placed on a platform with an area of 0.5 m^2, and a solution of agents was sprayed on the stems and leaves thereof by the 3WP-2000-type walking spray tower at a dosage of 450 kg/ha and at a spray pressure of 0.3 MPa. After all the solution was sprayed, the valve was closed. After 30 seconds, the door of the spray tower was opened, and the nutritional bowl was taken out. Then the valve was opened, and the spray tube was cleaned by spraying 50 ml of water. After the treatment, the weeds were routinely cultured in a greenhouse.
(§7) A method for investigating absolute number was employed, wherein whole seedlings of survival weeds were cut off with a blade along the soil surface, and the fresh weight of the weeds was weighed with an analytical balance. For dead weeds, the fresh weight thereof was zero.
(§8) The investigation was performed after 21 days of the treatment for only once.
(§9) An optimum ratio of the two active ingredients was determined by the actual control effect, characteristics of herbicides, and balance of a corresponding formula. Wherein, in the formula, X represented the fresh weight inhibition rate of the active ingredient A in a dosage of P, and Y represented the fresh weight inhibition rate of the active ingredient B in a dosage of Q. The statistical results were shown in the table 6.

Scirpus juncoides = assay: Weed control effect evaluation in rice field; settings: rice field pot, 30 g/ha, 14 days after treatment
Source text: (§10) The activity level criteria for plant damage (i.e., growth control rate) are as follows:
(§11) Rice field soil was loaded into a 1/1,000,000 ha pot. The seeds of Echinochloa crusgalli. Scirpus juncoides. Bidens tripartita L., Monochoria vaginalis, and Leptochloa chinensis were sowed and gently covered with soil, then left to stand still in greenhouse in the state of 0.5-1 cm of water storage. The tuber of Sagittaria trifolia was planted in the next day or 2 days later. It was kept at 3-4 cm of water storage thereafter. The weeds were treated by dripping the WP or SC water diluents prepared according to the common preparation method of the compounds of the present invention with pipette homogeneously to achieve specified effective amount when Echinochloa crusgalli. Scirpus juncoides, Bidens tripartita L., Monochoria vaginalis, and Leptochloa chinensis reached 0.5 leaf stage and Sagittaria trifolia reached the time point of primary leaf stage.
(§12) The fertility condition of Echinochloa crusgalli. Scirpus juncoides. Bidens tripartita L., Monochoria vaginalis, Leptochloa chinensis and Sagittaria trifolia 14 days after the treatment of the compound of the invention and the fertility condition of rice 21 days after the treatment of the compound of the invention respectively with the naked eye. Evaluate the weed control effect with the above activity standard level. Many compounds show excellent activity and selectivity.

Monochoria vaginalis = assay: Weed control effect evaluation in rice field; settings: rice field pot, 30 g/ha, 14 days after treatment
Source text: as §10, §11, §12

Leptochloa chinensis = assay: Weed control effect evaluation in rice field; settings: rice field pot, 30 g/ha, 14 days after treatment
Source text: as §10, §11, §12

Rice = assay: Transplanted rice safety evaluation; settings: transplanted japonica rice, 30 g/ha, 21 days after treatment
Description: as §10
In addition, the rice field soil that loaded into the 1/1,000,000 ha pot was leveled to keep water storage at 3-4 cm depth. The 5 leaf stage rice (japonica rice) was transplanted at 3 cm of transplanting depth the next day. The compound of the present invention was treated by the same way after 5 days of transplantation.
as §12

Malachium aquaticum = assay: Composition activity test, post-emergence foliage spray; settings: B 7.5 g a.i./ha
Description: as §1, §2, §3, §4, §5, §6, §7, §8, §9

Amaranthus retroflexus [2] = assay: Weeding effect in post-emergence stage; settings: 7.5 g/ha, 3 weeks
Procedure, shortened: (§13)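 Post-emergence spray tower; 2-3 leaf plants (2 wk after sowing, soil pots, greenhouse). Formulation: acetone, Tween 80, methyl oleate EC 1.5 liter/ha as synergist, water. Rates 500–7.5 g/ha. Growth control rate read at 3 wk; n=3, averaged.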

Echinochloa crusgalli = assay: Weeding effect in post-emergence stage; settings: for Weeding effect in post-emergence stage, Echinochloa crusgalli: level of fresh weight growth control rate
Procedure, shortened: as §13

Peanut = assay: Pre-emergence stage, crop selectivity; settings: 4 weeks
Procedure, shortened: (§14)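 Pots were kept in the greenhouse for 4 weeks and then rated for growth control on activity-level criteria. Spraying took place immediately after sowing at application rates of 500 to 7.5 g/ha, using an acetone/tween 80 formulation diluted with water, on seeds under 0.5-2 cm of soil.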

corn = assay: Pre-emergence stage, crop selectivity; settings: 4 weeks
Procedure, shortened: as §14

cotton = assay: Pre-emergence stage, crop selectivity; settings: 4 weeks
Procedure, shortened: as §14

Soybeans = assay: Pre-emergence stage, crop selectivity; settings: 4 weeks
Procedure, shortened: as §14

Setaria viridis [3] = assay: Weeding effect in pre-emergence stage; settings: 4 weeks
Procedure, shortened: as §14

Amaranthus retroflexus [4] = assay: Weeding effect in pre-emergence stage; settings: 4 weeks
Procedure, shortened: as §14

Abutilon theophrasti [5] = assay: Weeding effect in pre-emergence stage; settings: 4 weeks
Procedure, shortened: as §14

Descurainia sophia = assay: Weeding effect in pre-emergence stage; settings: 4 weeks
Procedure, shortened: as §14

Capsella bursa-pastoris = assay: Weeding effect in pre-emergence stage; settings: 4 weeks
Procedure, shortened: as §14

Veronica didyma Tenore = assay: Weeding effect in pre-emergence stage; settings: 4 weeks
Procedure, shortened: as §14

Setaria viridis [6] = assay: Weeding effect in post-emergence stage; settings: level of fresh weight growth control rate
Procedure, shortened: as §13

Alopecurus japonicus = assay: Weeding effect in post-emergence stage; settings: level of fresh weight growth control rate
Procedure, shortened: as §13

Abutilon theophrasti [7] = assay: Weeding effect in post-emergence stage; settings: level of fresh weight growth control rate
Procedure, shortened: as §13

Digitaria sanguinalis = assay: Weeding effect in post-emergence stage; settings: level of fresh weight growth control rate
Procedure, shortened: as §13

Eleusine indica = assay: Weeding effect in post-emergence stage; settings: for Weeding effect in post-emergence stage, Eleusine indica: level of fresh weight growth control rate
Procedure, shortened: as §13

[8] = post-emergence, 7.5 g/ha, 3 weeks

CS(=O)(=O)c1cc(C(F)(F)F)ccc1C(=O)c1cnoc1C1CC1 [isoxaflutole]
Control effect (%) of B applied alone (B) [1]: 41.3%

Cc1nn(C)cc1C(=O)Oc1c(C(=O)c2ccc(C(F)(F)F)cc2S(C)(=O)=O)c(C)nn1C [shuangzuocaotong]
Control effect (%) of B applied alone (B) [1]: 35.9%

CCOC(=O)c1cnn(C)c1S(=O)(=O)NC(=O)Nc1nc(OC)cc(OC)n1 [pyrazosulfuron-ethyl, reference compound]
activity level (weed control effect) Scirpus juncoides (Scirpus juncoides): 1 (Level 1: growth control rate is greater than or equal to 5% and less than 20%)
activity level (weed control effect) Monochoria vaginalis (Monochoria vaginalis): 2 (Level 2: growth control rate is greater than or equal to 20% and less than 40%)
activity level (weed control effect) Leptochloa chinensis (Leptochloa chinensis): 2 (Level 2: growth control rate is greater than or equal to 20% and less than 40%)
plant damage level Rice (Rice): 1 (Level 1: growth control rate is greater than or equal to 5% and less than 20%)
Control effect (%) of B applied alone (B) (Malachium aquaticum): 35.7%

COC(=O)[C@@H](C)O/N=C/c1cc(-n2c(=O)cc(C(F)(F)F)n(C)c2=O)c(F)cc1Cl [194(R)]
activity level (growth control rate) Amaranthus retroflexus (Amaranthus retroflexus [2]): 5 (Level 5: growth control rate is above 85%)
Weeding effect in post-emergence stage, Echinochloa crusgalli (Echinochloa crusgalli; Dose 7.5 g/ha): 5 (Level 5: growth control rate is above 85%)
Weeding effect in post-emergence stage, Echinochloa crusgalli (Echinochloa crusgalli; Dose 15 g/ha): 5 (Level 5: growth control rate is above 85%)
activity level (growth control rate) Echinochloa crusgalli (Echinochloa crusgalli; [8]): 5 (Level 5: growth control rate is above 85%)
activity level (weed control effect) Scirpus juncoides (Scirpus juncoides): 5 (Level 5: growth control rate is above 85%)
activity level (weed control effect) Monochoria vaginalis (Monochoria vaginalis): 5 (Level 5: growth control rate is above 85%)
activity level (weed control effect) Leptochloa chinensis (Leptochloa chinensis): 5 (Level 5: growth control rate is above 85%)
plant damage level Peanut (Peanut; 15 g/ha): 0 (Level 0: growth control rate is less than 5%)
plant damage level Peanut (Peanut; 30 g/ha): 0 (Level 0: growth control rate is less than 5%)
plant damage level Peanut (Peanut; 60 g/ha): 0 (Level 0: growth control rate is less than 5%)
plant damage level Corn (corn; 15 g/ha): 0 (Level 0: growth control rate is less than 5%)
plant damage level Corn (corn; 30 g/ha): 0 (Level 0: growth control rate is less than 5%)
plant damage level Corn (corn; 60 g/ha): 0 (Level 0: growth control rate is less than 5%)
plant damage level Cotton (cotton; 15 g/ha): 0 (Level 0: growth control rate is less than 5%)
plant damage level Cotton (cotton; 30 g/ha): 0 (Level 0: growth control rate is less than 5%)
plant damage level Cotton (cotton; 60 g/ha): 0 (Level 0: growth control rate is less than 5%)
plant damage level Soybeans (Soybeans; 15 g/ha): 0 (Level 0: growth control rate is less than 5%)
plant damage level Soybeans (Soybeans; 30 g/ha): 0 (Level 0: growth control rate is less than 5%)
plant damage level Soybeans (Soybeans; 60 g/ha): 0 (Level 0: growth control rate is less than 5%)
plant damage level Rice (Rice): 0 (Level 0: growth control rate is less than 5%)
activity level (growth control rate) Setaria viridis (Setaria viridis [3]; 15 g/ha): 5 (Level 5: growth control rate is above 85%)
activity level (growth control rate) Setaria viridis (Setaria viridis [3]; 30 g/ha): 5 (Level 5: growth control rate is above 85%)
activity level (growth control rate) Setaria viridis (Setaria viridis [3]; 60 g/ha): 5 (Level 5: growth control rate is above 85%)
activity level (growth control rate) Amaranthus retroflexus (Amaranthus retroflexus [4]; 15 g/ha): 5 (Level 5: growth control rate is above 85%)
activity level (growth control rate) Amaranthus retroflexus (Amaranthus retroflexus [4]; 30 g/ha): 5 (Level 5: growth control rate is above 85%)
activity level (growth control rate) Amaranthus retroflexus (Amaranthus retroflexus [4]; 60 g/ha): 5 (Level 5: growth control rate is above 85%)
activity level (growth control rate) Abutilon theophrasti (Abutilon theophrasti [5]; 15 g/ha): 5 (Level 5: growth control rate is above 85%)
activity level (growth control rate) Abutilon theophrasti (Abutilon theophrasti [5]; 30 g/ha): 5 (Level 5: growth control rate is above 85%)
activity level (growth control rate) Abutilon theophrasti (Abutilon theophrasti [5]; 60 g/ha): 5 (Level 5: growth control rate is above 85%)
activity level (growth control rate) Descurainia sophia (Descurainia sophia; 15 g/ha): 5 (Level 5: growth control rate is above 85%)
activity level (growth control rate) Descurainia sophia (Descurainia sophia; 30 g/ha): 5 (Level 5: growth control rate is above 85%)
activity level (growth control rate) Descurainia sophia (Descurainia sophia; 60 g/ha): 5 (Level 5: growth control rate is above 85%)
activity level (growth control rate) Capsella bursa-pastoris (Capsella bursa-pastoris; 15 g/ha): 5 (Level 5: growth control rate is above 85%)
activity level (growth control rate) Capsella bursa-pastoris (Capsella bursa-pastoris; 30 g/ha): 5 (Level 5: growth control rate is above 85%)
activity level (growth control rate) Capsella bursa-pastoris (Capsella bursa-pastoris; 60 g/ha): 5 (Level 5: growth control rate is above 85%)
activity level (growth control rate) Veronica didyma Tenore (Veronica didyma Tenore; 15 g/ha): 5 (Level 5: growth control rate is above 85%)
activity level (growth control rate) Veronica didyma Tenore (Veronica didyma Tenore; 30 g/ha): 5 (Level 5: growth control rate is above 85%)
activity level (growth control rate) Veronica didyma Tenore (Veronica didyma Tenore; 60 g/ha): 5 (Level 5: growth control rate is above 85%)
Weeding effect in post-emergence stage, Setaria viridis (Setaria viridis [6]; Dose 7.5 g/ha): 5 (Level 5: growth control rate is above 85%)
Weeding effect in post-emergence stage, Setaria viridis (Setaria viridis [6]; Dose 15 g/ha): 5 (Level 5: growth control rate is above 85%)
Weeding effect in post-emergence stage, Alopecurus japonicus (Alopecurus japonicus; Dose 7.5 g/ha): 5 (Level 5: growth control rate is above 85%)
Weeding effect in post-emergence stage, Alopecurus japonicus (Alopecurus japonicus; Dose 15 g/ha): 5 (Level 5: growth control rate is above 85%)
Weeding effect in post-emergence stage, Abutilon theophrasti (Abutilon theophrasti [7]; Dose 7.5 g/ha): 5 (Level 5: growth control rate is above 85%)
Weeding effect in post-emergence stage, Abutilon theophrasti (Abutilon theophrasti [7]; Dose 15 g/ha): 5 (Level 5: growth control rate is above 85%)
Weeding effect in post-emergence stage, Digitaria sanguinalis (Digitaria sanguinalis; Dose 7.5 g/ha): 5 (Level 5: growth control rate is above 85%)
Weeding effect in post-emergence stage, Digitaria sanguinalis (Digitaria sanguinalis; Dose 15 g/ha): 5 (Level 5: growth control rate is above 85%)
Weeding effect in post-emergence stage, Eleusine indica (Eleusine indica; Dose 7.5 g/ha): 5 (Level 5: growth control rate is above 85%)
Weeding effect in post-emergence stage, Eleusine indica (Eleusine indica; Dose 15 g/ha): 5 (Level 5: growth control rate is above 85%)
activity level (growth control rate) Eleusine indica (Eleusine indica; [8]): 5 (Level 5: growth control rate is above 85%)
